# Assays:
# [1] = test system: Candida albicans; test: Antifungal activity against Candida albicans CPCC 400616 assessed as inhibition of visible growth; type: functional
# [2] = test system: Nakaseomyces glabratus; test: Antifungal activity against Clinical isolate Candida glabrata assessed as inhibition of visible growth; type: functional
# [3] = test system: Cryptococcus neoformans; test: Antifungal activity against Cryptococcus neoformans CGMCC 2.3161 assessed as inhibition of visible growth; type: functional
# [4] = Metabolic stability in human liver microsomes assessed as half life by LC-MS/MS analysis; type: ADME, Microsome; details: liver microsomes
# [5] = Metabolic stability in human liver microsomes assessed as compound remaining measured up to 60 mins by LC-MS/MS analysis; type: ADME, Microsome; details: liver microsomes, read-out: Activity
# [6] = Selectivity ratio, ratio of IC50 for cytotoxicity against human SH-SY5Y cells to MIC80 for antifungal activity against Candida albicans SC 5314; type: toxicity, cell-based
# [7] = molecular target: Cytochrome P450 2D6 (Homo sapiens, UniProt P10635); test: Inhibition of CYP2D6 in human liver microsomes using dextromethorphan as substrate measured after 10 mins by LC/MS/MS analysis; type: ADME, Microsome
# [8] = molecular target: T1, Cytochrome P450 3A4 (Homo sapiens, UniProt P08684); test: Inhibition of CYP3A4 in human liver microsomes using testosterone as substrate measured after 10 mins by LC/MS/MS analysis; type: ADME, Microsome
# [9] = molecular target: T1, Cytochrome P450 3A4; test: Inhibition of CYP3A4 in human liver microsomes using midazolam as substrate measured after 10 mins by LC/MS/MS analysis; type: ADME, Microsome
# [10] = Cytotoxicity against human HUVEC cells measured after 72 hrs by MTT assay; type: toxicity, cell-based
# [11] = (§1) Selectivity ratio, ratio of IC50 for cytotoxicity against human SH-SY5Y cells to MIC80 for antifungal activity against Candida albicans CPCC 400616; type: toxicity, cell-based
# [12] = (§2) Selectivity ratio, ratio of IC50 for cytotoxicity against human SH-SY5Y cells to MIC80 for antifungal activity against Candida tropicalis CGMCC 2.3739; type: toxicity, cell-based
# [13] = (§3) Selectivity ratio, ratio of IC50 for cytotoxicity against human SH-SY5Y cells to MIC80 for antifungal activity against Candida parapsilosis GIM 2.190; type: toxicity, cell-based
# [14] = (§4) Selectivity ratio, ratio of IC50 for cytotoxicity against human SH-SY5Y cells to MIC80 for antifungal activity against Clinical isolate Candida glabrata; type: toxicity, cell-based
# [15] = as §1; type: toxicity, cell-based; remark: listed apart in the source
# [16] = as §2; type: toxicity, cell-based; remark: listed apart in the source
# [17] = as §3; type: toxicity, cell-based; remark: listed apart in the source
# [18] = as §4; type: toxicity, cell-based; remark: listed apart in the source
# [19] = test system: Nakaseomyces glabratus; test: Fungicidal activity against Clinical isolate Candida glabrata assessed as concentration of colonies (< 5) measured after 48 hrs incubation; type: functional
# [20] = test system: Cryptococcus neoformans; test: Fungicidal activity against Cryptococcus neoformans CGMCC 2.3161 assessed as concentration of colonies (< 5) measured after 48 hrs incubation; type: functional
# [21] = test system: Cryptococcus neoformans; test: Fungicidal index, ratio of MFC for fungicidal activity against Cryptococcus neoformans CGMCC 2.3161 to MIC80 for antifungal activity against Cryptococcus neoformans CGMCC 2.3161; type: functional
# [22] = test system: Nakaseomyces glabratus; test: Inhibition of biofilm formation in clinical isolate Candida glabrata assessed as inhibition of metabolic activity of biofilm measured after 24 hrs by XTT assay; type: functional
# [23] = test system: Cryptococcus neoformans; test: Inhibition of biofilm formation in Cryptococcus neoformans CGMCC 2.3161 assessed as inhibition of metabolic activity of biofilm measured after 24 hrs by XTT assay; type: functional
# [24] = test system: Candida albicans; test: Antifungal activity against Candida albicans SC5314 assessed as reduction in Eburicol at 0.05 ug/ml measured after 18 hrs incubation by gas chromatography-mass spectrometry (GCMS) analysis; type: functional; set-up: scale not given: the % may be the effect or the level left; details: dose 0.05 µg/ml
# [25] = test system: Candida albicans; test: Antifungal activity against Candida albicans SC5314 assessed as reduction in other sterol at 0.05 ug/ml measured after 18 hrs incubation by gas chromatography-mass spectrometry (GCMS) analysis (reference value: 2.59%); type: functional; set-up: scale not given: the % may be the effect or the level left; details: dose 0.05 µg/ml
# [26] = test system: Cryptococcus neoformans; test: Antifungal activity against Cryptococcus neoformans CGMCC 2.3161 assessed as reduction in Eburicol at 0.0125 ug/ml measured after 18 hrs incubation by gas chromatography-mass spectrometry (GCMS) analysis; type: functional; set-up: scale not given: the % may be the effect or the level left; details: dose 0.0125 µg/ml
# [27] = test system: Cryptococcus neoformans; test: Antifungal activity against Cryptococcus neoformans CGMCC 2.3161 assessed as reduction in other sterol at 0.0125 ug/ml measured after 18 hrs incubation by gas chromatography-mass spectrometry (GCMS) analysis (reference value: 2.20%); type: functional; set-up: scale not given: the % may be the effect or the level left; details: dose 0.0125 µg/ml
# [28] = test system: Cryptococcus neoformans; test: Antifungal activity against Cryptococcus neoformans CGMCC 2.3161 assessed as reduction in ergosterol at 0.125 ug/ml measured after 18 hrs incubation by gas chromatography-mass spectrometry (GCMS) analysis (reference value: 94.48%); type: functional; set-up: scale not given: the % may be the effect or the level left; details: dose 0.125 µg/ml
# [29] = test system: Cryptococcus neoformans; test: Antifungal activity against Cryptococcus neoformans CGMCC 2.3161 assessed as reduction in Obtusifoliol at 0.125 ug/ml measured after 18 hrs incubation by gas chromatography-mass spectrometry (GCMS) analysis; type: functional; set-up: scale not given: the % may be the effect or the level left; details: dose 0.125 µg/ml
# [30] = test system: Cryptococcus neoformans; test: Antifungal activity against Cryptococcus neoformans CGMCC 2.3161 assessed as reduction in Lanosterol at 0.125 ug/ml measured after 18 hrs incubation by gas chromatography-mass spectrometry (GCMS) analysis; type: functional; set-up: scale not given: the % may be the effect or the level left; details: dose 0.125 µg/ml
# [31] = test system: Cryptococcus neoformans; test: Antifungal activity against Cryptococcus neoformans CGMCC 2.3161 assessed as reduction in other sterol at 0.125 ug/ml measured after 18 hrs incubation by gas chromatography-mass spectrometry (GCMS) analysis (reference value: 2.20%); type: functional; set-up: scale not given: the % may be the effect or the level left; details: dose 0.125 µg/ml
# [32] = Half life in Sprague-Dawley rat at 10 mg/kg, po by LC-MS/MS analysis; type: ADME, organism-based; details: in vivo
# [33] = Tmax in Sprague-Dawley rat at 10 mg/kg, po by LC-MS/MS analysis; type: ADME, organism-based; details: in vivo
# [34] = Cmax in Sprague-Dawley rat at 10 mg/kg, po by LC-MS/MS analysis; type: ADME, organism-based; details: in vivo
# [35] = AUC (0 to infinity) in Sprague-Dawley rat at 10 mg/kg, po by LC-MS/MS analysis; type: ADME, organism-based; details: in vivo
# [36] = MRT (0 to infinity) in Sprague-Dawley rat at 10 mg/kg, po by LC-MS/MS analysis; type: ADME, organism-based; details: in vivo
# [37] = Half life in Sprague-Dawley rat at 3 mg/kg, iv by LC-MS/MS analysis; type: ADME, organism-based; details: in vivo
# [38] = Cmax in Sprague-Dawley rat at 3 mg/kg, iv by LC-MS/MS analysis; type: ADME, organism-based; details: in vivo
# [39] = MRT (0 to infinity) in Sprague-Dawley rat at 3 mg/kg, iv by LC-MS/MS analysis; type: ADME, organism-based; details: in vivo
# [40] = Toxicity in ICR mouse assessed as mortality at 500 mg/kg, po single dose measured for 7 days; type: organism-based; details: in vivo, 168 h, time 7 day
# [41] = Toxicity in ICR mouse assessed as change in body weight at 500 mg/kg, po single dose measured for 7 days; type: organism-based; details: in vivo, 168 h, time 7 day
# [42] = Subacute toxicity in ICR mouse assessed as mortality at 100 mg/kg, oral gavage for 14 consecutive days; type: organism-based; details: in vivo, 336 h, time 14 day
# [43] = Subacute toxicity in ICR mouse assessed as change in body weight at 100 mg/kg, oral gavage for 14 consecutive days; type: organism-based; details: in vivo, 336 h, time 14 day
# [44] = Subacute toxicity in ICR mouse assessed as structural alteration in liver at 100 mg/kg, oral gavage for 14 consecutive days by hematoxylin-eosin (H/E) staining analysis; type: organism-based; details: in vivo, 336 h, time 14 day
# T1 sequence (P08684 whole entry): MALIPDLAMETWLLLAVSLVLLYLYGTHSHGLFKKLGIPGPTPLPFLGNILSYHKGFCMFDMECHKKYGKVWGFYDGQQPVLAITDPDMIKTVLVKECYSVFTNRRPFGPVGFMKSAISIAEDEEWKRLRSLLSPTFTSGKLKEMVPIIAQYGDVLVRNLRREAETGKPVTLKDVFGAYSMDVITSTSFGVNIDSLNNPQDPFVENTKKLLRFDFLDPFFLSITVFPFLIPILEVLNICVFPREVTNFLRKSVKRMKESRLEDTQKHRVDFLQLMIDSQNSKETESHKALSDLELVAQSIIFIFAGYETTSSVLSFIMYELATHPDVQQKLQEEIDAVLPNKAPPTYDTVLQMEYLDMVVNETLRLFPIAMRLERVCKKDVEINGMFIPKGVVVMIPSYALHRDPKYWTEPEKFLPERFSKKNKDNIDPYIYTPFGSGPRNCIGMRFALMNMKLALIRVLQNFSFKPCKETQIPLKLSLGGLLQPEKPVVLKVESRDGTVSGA
# Cytochrome P450 2D6, sequence (P10635 whole entry): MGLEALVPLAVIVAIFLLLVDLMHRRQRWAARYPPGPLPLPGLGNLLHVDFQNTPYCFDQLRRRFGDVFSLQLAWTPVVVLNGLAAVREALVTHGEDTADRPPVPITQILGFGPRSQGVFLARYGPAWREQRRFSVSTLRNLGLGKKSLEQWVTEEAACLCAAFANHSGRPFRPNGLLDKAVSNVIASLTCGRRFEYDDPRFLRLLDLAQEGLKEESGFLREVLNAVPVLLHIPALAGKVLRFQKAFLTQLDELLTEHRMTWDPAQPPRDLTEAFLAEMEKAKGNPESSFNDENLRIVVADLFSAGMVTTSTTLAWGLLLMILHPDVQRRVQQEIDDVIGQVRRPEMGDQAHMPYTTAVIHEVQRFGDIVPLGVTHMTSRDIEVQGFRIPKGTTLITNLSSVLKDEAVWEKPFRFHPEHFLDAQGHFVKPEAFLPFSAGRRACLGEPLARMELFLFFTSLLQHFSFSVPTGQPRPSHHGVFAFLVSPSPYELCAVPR
smiles,measurement,setting,value
[2H]C([2H])([2H])N(Cc1ccc(-c2ccc(OC(F)(F)F)cc2)cc1)[C@H](C)[C@](O)(Cn1cncn1)c1ccc(F)cc1F,MIC80,[1],6 ng/mL
same,MIC80,[2],0.012 µg/mL
same,MIC80,[3],0.012 µg/mL
same,half-life,[4],40.2 min
same,remaining at 1 h,[5],34.4%
same,selectivity ratio,[6],> 100
same,IC50,[7],> 10 µM
same,IC50,[8],5.11 µM
same,IC50,[9],6.62 µM
same,IC50 at 72 h,[10],23.5 µM
same,selectivity ratio,[11],> 100
same,selectivity ratio,[12],> 100
same,selectivity ratio,[13],> 100
same,selectivity ratio,[14],> 100
same,selectivity ratio,[15],> 100
same,selectivity ratio,[16],> 100
same,selectivity ratio,[17],> 100
same,selectivity ratio,[18],> 100
same,MFC,[19],0.5 µg/mL
same,MFC,[20],0.062 µg/mL
same,Activity_index,[21],5
same,MIC50,[22],0.062 µg/mL
same,MIC50,[23],16 µg/mL
same,Activity,[24],46.42%
same,Activity,[25],3.13%
same,Activity,[26],11.59%
same,Activity,[27],8.38%
same,Activity,[28],5.68%
same,Activity,[29],26.05%
same,Activity,[30],6.14%
same,Activity,[31],11.5%
same,half-life,[32],265 min
same,Tmax,[33],2.67 h
same,Cmax,[34],601 ng/mL
same,AUC(0-inf),[35],4830 ng·h/mL
same,MRT inf,[36],6.18 h
same,t1/2,[37],6.79 h
same,Cmax,[38],2290 ng/mL
same,MRT inf,[39],2.32 h
same,Activity,[40],Non-toxic
same,Activity,[41],Non-toxic
same,Activity,[42],Non-toxic
same,Activity,[43],Non-toxic
same,Activity,[44],Non-toxic
